Literature values in patent publication US6673373B2, “Antifungal formulation and the methods for manufacturing and using the same” (Carlsbad Technology Inc., priority 2001, dated 2004).

How the values were obtained:
[1] = not given; remark: listed apart in the source
[2] = not given; remark: listed apart in the source

| Compound | solubility in water | time to reach peak concentration in plasma ([1]; after taken by the patients) [h] | concentration in blood as % of that in plasma ([1]; in vivo) | itraconazole in its original form excreted in feces ([1]; in vivo) | itraconazole in its original form secreted in urine ([1]; in vivo) [%] | plasma half life ([1]; in vivo) [h] | itraconazole metabolites secreted in urine ([1]; within a week after the uptake of the drug) | binding rate with plasma proteins (plasma proteins) [%] | antifungal activity in vitro [2] |
| --- | --- | --- | --- | --- | --- | --- | --- | --- | --- |
| CCC(C)n1ncn(-c2ccc(N3CCN(c4ccc(OC[C@H]5CO[C@](Cn6cncn6)(c6ccc(Cl)cc6Cl)O5)cc4)CC3)cc2)c1=O (mixture of isomers) [itraconazole, (±)-cis-4-[4-[4-[4-[[2-(2,4-dichlorophenyl)-2-(1H-1,2,4-triazol-1-ylmethyl)-1,3-dioxolan-4-yl]methoxy]phenyl]-1-piperazinyl]phenyl]-2,4-dihydro-2-(1-methylpropyl)-3H-1,2,4-triazol-3-one] | less than 1 μg/ml | 3 to 4 | about 60% | 3-18% | ≤ 0.03 | 24 to 36 | About 35% | 99.8 | – |
| hydroxy-itraconazole | – | – | – | – | – | – | – | – | demonstrated in vitro to have antifungal activity |
